Measurements reported in ChEMBL document CHEMBL4346725, “Molecular design and anticancer activities of small-molecule monopolar spindle 1 inhibitors: A Medicinal chemistry perspective” (Eur J Med Chem, 2019).
One block for each molecule: values may come before it.

What was measured:
[1] = test system: HCT-116; assay: animal or person; settings: Mus musculus, HCT-116, ip, read-out: TGI
[2] = in vivo; settings: mouse, ip, 150 mg/kg
[3] = test system: COLO 205; assay: animal or person; settings: Mus musculus, COLO 205, ip, 96 h, read-out: TGI
[4] = test system: HCT-116; assay: animal or person; settings: Mus musculus, HCT-116, ip, 96 h, read-out: TGI
[5] = biological target: T1, Dual specificity protein kinase TTK (Homo sapiens, UniProt P33981); assay: Inhibition of MPS1 (unknown origin)
T1 sequence (P33981 whole entry): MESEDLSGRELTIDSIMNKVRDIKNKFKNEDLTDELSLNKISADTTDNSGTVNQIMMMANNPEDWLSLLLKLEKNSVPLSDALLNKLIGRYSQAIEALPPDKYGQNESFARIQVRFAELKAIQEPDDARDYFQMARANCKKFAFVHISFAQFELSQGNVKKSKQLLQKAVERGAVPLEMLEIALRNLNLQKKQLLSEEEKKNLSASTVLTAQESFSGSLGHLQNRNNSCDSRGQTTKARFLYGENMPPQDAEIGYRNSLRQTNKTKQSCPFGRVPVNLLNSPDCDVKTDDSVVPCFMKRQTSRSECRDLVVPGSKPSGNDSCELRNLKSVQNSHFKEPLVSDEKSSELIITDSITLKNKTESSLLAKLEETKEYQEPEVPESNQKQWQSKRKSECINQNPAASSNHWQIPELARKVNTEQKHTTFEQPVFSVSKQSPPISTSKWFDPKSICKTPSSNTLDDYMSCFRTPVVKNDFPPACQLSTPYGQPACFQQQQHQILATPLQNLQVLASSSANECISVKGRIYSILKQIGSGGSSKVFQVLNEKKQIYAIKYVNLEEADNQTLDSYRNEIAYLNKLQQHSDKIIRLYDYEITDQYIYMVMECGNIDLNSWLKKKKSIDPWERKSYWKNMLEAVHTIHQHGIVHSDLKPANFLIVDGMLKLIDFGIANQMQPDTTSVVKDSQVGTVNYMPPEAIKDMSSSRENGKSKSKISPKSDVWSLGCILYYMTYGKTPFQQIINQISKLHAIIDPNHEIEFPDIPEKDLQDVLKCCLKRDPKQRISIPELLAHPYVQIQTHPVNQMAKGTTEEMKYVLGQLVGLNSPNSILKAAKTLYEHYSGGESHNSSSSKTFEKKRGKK

[6] = Oral bioavailability in mouse xenografted with human A2780 cells at 90 mg/kg daily administered for 7 consecutive days; type: ADME, organism-based; settings: in vivo
[7] = Half life in mouse xenografted with human A2780 cells at 90 mg/kg, po daily administered for 7 consecutive days; type: ADME, organism-based; settings: in vivo
[8] = test system: A2780; assay: Antitumor activity against human A2780 cells xenografted in mouse assessed as tumor growth inhibition at 90 mg/kg, po daily administered for 7 consecutive days relative to control; type: functional; settings: read-out: TGI
[9] = biological target: T1, Dual specificity protein kinase TTK; assay: Inhibition of glioblastoma patient derived MPS1
[10] = biological target: Mast/stem cell growth factor receptor Kit (Homo sapiens) (UniProt P10721); assay: Inhibition of KIT (unknown origin) relative to control; settings: concentration not given here
[11] = biological target: Focal adhesion kinase 1 (Homo sapiens) (UniProt Q05397); assay: Inhibition of FAK (unknown origin) relative to control; settings: concentration not given here
[12] = biological target: Mitogen-activated protein kinase 8 (Homo sapiens) (UniProt P45983); assay: Inhibition of JNK1 (unknown origin) relative to control; settings: concentration not given here
[13] = biological target: Mitogen-activated protein kinase 9 (Homo sapiens) (UniProt P45984); assay: Inhibition of JNK2 (unknown origin) relative to control; settings: concentration not given here
[14] = biological target: T1, Dual specificity protein kinase TTK; assay: Inhibition of MPS1 (510 to 857 residues) catalytic domain (unknown origin) expressed in Escherichia coli after 15 mins by mass-spectrometry analysis
[15] = test system: A549; assay: animal or person; settings: Mus musculus, A549, po, read-out: TGI
[16] = test system: MDA-MB-231; assay: Antiproliferative activity against human MDA-MB-231 cells after 7 days by cell titer-glo assay; type: functional, cell-based; settings: MDA-MB-231, 168 h
[17] = Half life in mouse at 5 mg/kg, po; type: ADME, organism-based; settings: in vivo
[18] = Cmax in mouse at 5 mg/kg, ip; type: ADME, organism-based; design: dose 5 mg/kg, route intraperitoneal; settings: in vivo
[19] = Half life in mouse at 5 mg/kg, iv; type: ADME, organism-based; settings: in vivo
[20] = Cmax in mouse at 5 mg/kg, iv; type: ADME, organism-based; design: dose 5 mg/kg, route intravenous; settings: in vivo
[21] = Bioavailability in mouse at 5 mg/kg, ip; type: ADME, organism-based; settings: in vivo
[22] = Cmax in mouse at 5 mg/kg, po; type: ADME, organism-based; design: dose 5 mg/kg, route oral; settings: in vivo
[23] = Half life in mouse at 5 mg/kg, ip; type: ADME, organism-based; settings: in vivo
[24] = Oral bioavailability in mouse at 5 mg/kg; type: ADME, organism-based; settings: in vivo
[25] = test system: Mus musculus; assay: In vivo inhibition of MPS1 in mouse xenografted with human HCT116 cells at 100 mg/kg, po after 24 hrs by LC-MS analysis relative to control; type: functional; settings: HCT-116, po

Sequence of Mitogen-activated protein kinase 8 (Homo sapiens) (P45983 whole entry): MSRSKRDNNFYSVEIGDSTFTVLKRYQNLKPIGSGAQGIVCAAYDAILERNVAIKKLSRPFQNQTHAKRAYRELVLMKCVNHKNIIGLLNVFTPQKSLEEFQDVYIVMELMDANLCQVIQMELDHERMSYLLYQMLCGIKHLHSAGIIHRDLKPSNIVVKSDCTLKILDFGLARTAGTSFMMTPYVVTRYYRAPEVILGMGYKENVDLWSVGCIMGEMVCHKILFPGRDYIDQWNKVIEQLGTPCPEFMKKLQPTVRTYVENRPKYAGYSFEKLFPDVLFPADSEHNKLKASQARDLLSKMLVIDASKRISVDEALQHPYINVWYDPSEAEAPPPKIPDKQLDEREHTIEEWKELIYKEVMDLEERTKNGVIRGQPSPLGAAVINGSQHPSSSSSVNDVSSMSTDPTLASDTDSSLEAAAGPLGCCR
Sequence of Mitogen-activated protein kinase 9 (Homo sapiens) (P45984 whole entry, looked up, the tested form may be a part): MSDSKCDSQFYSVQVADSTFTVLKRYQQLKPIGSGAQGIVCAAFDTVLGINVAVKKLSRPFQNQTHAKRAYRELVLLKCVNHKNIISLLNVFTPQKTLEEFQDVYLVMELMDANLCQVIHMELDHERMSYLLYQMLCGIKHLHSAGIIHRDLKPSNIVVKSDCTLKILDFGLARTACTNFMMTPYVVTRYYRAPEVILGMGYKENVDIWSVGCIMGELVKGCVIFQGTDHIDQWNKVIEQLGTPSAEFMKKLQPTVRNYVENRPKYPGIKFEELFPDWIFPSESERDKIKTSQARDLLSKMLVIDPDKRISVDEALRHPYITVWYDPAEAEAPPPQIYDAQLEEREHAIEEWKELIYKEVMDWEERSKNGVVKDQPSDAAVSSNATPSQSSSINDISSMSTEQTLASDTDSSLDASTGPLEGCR
Sequence of Focal adhesion kinase 1 (Homo sapiens) (Q05397 2-1052 limits assumed): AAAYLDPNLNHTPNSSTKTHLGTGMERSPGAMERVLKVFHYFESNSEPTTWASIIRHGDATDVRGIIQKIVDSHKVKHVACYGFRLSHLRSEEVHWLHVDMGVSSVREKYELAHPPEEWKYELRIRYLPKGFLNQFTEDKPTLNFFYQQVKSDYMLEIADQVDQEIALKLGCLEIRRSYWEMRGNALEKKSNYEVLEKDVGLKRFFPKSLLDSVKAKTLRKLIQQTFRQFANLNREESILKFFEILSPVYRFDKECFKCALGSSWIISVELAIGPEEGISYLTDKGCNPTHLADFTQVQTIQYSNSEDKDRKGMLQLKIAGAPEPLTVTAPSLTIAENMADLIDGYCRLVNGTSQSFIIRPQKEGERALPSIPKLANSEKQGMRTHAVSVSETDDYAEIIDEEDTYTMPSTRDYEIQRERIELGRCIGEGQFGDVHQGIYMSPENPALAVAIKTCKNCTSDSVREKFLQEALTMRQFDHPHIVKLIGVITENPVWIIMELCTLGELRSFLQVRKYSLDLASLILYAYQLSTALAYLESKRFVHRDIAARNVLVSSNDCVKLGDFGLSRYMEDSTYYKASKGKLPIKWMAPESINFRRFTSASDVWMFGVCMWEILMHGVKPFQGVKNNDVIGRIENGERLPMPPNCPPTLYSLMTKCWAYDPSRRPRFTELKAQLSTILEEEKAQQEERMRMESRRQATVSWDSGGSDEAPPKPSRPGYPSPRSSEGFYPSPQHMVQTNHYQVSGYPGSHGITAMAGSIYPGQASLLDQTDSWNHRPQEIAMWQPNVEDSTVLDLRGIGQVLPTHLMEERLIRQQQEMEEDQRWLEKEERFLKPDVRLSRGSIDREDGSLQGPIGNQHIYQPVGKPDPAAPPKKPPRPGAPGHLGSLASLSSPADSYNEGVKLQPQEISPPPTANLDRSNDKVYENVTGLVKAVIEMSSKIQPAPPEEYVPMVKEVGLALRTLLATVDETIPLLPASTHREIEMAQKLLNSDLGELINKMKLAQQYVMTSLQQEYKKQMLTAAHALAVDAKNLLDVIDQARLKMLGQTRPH
Sequence of Mast/stem cell growth factor receptor Kit (Homo sapiens) (P10721 whole entry): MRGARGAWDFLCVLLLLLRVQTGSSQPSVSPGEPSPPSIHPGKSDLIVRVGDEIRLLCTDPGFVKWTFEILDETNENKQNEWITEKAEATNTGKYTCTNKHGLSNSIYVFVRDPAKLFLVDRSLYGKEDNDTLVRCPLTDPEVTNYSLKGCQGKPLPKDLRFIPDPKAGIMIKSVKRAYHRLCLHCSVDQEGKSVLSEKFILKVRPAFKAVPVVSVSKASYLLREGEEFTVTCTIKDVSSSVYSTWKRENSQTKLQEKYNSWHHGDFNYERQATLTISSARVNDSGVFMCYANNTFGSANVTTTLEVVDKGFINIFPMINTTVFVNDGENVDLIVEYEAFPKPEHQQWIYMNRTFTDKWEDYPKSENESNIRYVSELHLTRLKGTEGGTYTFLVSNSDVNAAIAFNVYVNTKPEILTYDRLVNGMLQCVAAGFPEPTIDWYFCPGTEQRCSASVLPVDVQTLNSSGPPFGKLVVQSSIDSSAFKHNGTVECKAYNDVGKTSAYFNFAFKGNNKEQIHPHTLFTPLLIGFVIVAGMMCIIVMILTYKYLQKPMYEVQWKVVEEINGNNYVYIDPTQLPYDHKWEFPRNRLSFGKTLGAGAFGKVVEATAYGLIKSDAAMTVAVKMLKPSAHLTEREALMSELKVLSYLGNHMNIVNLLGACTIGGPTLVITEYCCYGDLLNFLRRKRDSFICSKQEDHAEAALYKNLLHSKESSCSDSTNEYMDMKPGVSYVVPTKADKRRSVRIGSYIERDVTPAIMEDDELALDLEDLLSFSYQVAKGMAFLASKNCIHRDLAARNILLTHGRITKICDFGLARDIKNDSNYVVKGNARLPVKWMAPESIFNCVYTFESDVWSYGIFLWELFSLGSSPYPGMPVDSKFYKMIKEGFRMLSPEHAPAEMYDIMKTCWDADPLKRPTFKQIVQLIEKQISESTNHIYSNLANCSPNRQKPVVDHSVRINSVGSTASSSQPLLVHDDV

SMILES: c1nc2nc(Nc3ccc(N4CCOCC4)cc3)nc(NC3CCCCC3)c2[nH]1 [REVERSINE]
inhibition in vivo at 30 mg/kg [1]: 49%
AUC at 96 h [2]: 0.786 ng·h/mL
inhibition in vivo at 150 mg/kg [3]: 63%
inhibition in vivo at 150 mg/kg [4]: 74%

SMILES: COc1cc(N2CCC(O)CC2)ccc1Nc1nc(Nc2ccccc2S(=O)(=O)C(C)C)c2nc[nH]c2n1
IC50 [9]: 50 nM

SMILES: Cc1nc(N2CCOCC2)ccc1Nc1nc(NC(C)(C)CO)c2c(C#N)c[nH]c2n1
IC50 [14]: 5.5 nM
Ki [14]: < 0.5 nM

SMILES: CC(C)(C)Nc1nc(Nc2ccc(C(N)=O)cc2)cc(N)c1C#N
inhibition in vivo at 100 mg/kg [15]: 47%

SMILES: Cc1nc(N2CCOCC2)ccc1Nc1nc(NC2CCOCC2)c2c(C#N)c[nH]c2n1
IC50 [14]: 2.5 nM
Ki [14]: < 0.5 nM
IC50 [16]: 2 to 6 nM

SMILES: CCc1cccc(CC)c1NC(=O)c1ccn2c1CCc1cnc(Nc3ccc(N4CCN(C)CC4)cc3OC)nc1-2
half-life [17]: 3.9 h
Cmax [18]: 629 nM
half-life [19]: 2.9 h
Cmax [20]: 3060 nM
bioavailability [21]: 90.3%
Cmax [22]: 188 nM
half-life [23]: 3.4 h
bioavailability [24]: 45.2%

SMILES: COc1cc(-c2cnn(C)c2)ccc1Nc1ncc2ccnc(N[C@@H](C)C(C)(C)C)c2n1
inhibition in vivo at 100 mg/kg [25]: > 80%

Now from value to molecule, other results behind:

IC50 [5]: 9 nM
SMILES: CC(C)CNc1nc(-c2cccc3ncccc23)cn2c(-c3ccc(C(=O)NC4CC4)cc3)cnc12

IC50 [5]: 98 nM
SMILES: O=C1c2ccccc2-c2n[nH]c3cccc1c23

bioavailability [6]: 37.9%
half-life [7]: 8 h
SMILES: CCc1cccc(CC)c1NC(=O)c1nn(C)c2c1CCc1cnc(Nc3ccc(C(=O)NC4CCN(C)CC4)cc3OC(F)(F)F)nc1-2
inhibition in vivo at 90 mg/kg [8]: 53%

inhibition [10]: > 40%
inhibition [11]: > 40%
inhibition [12]: > 40%
inhibition [13]: > 40%
SMILES: COc1cc(OC2CCN(C)CC2)ccc1Nc1ncc2c(n1)n(C1CCCC1)c(=O)n2C
